Laboratory results taken from US20240368134A1, “AROMATIC COMPOUND, PHARMACEUTICAL COMPOSITION, AND APPLICATION THEREOF” (SHANGHAI KYGENT PHARMACEUTICAL CO., LTD, priority 2021, published 2024).
Read-outs that look alike come from different tables or passages of the source.

How the values were obtained:
MSTO-211H cells = assay: Tumor cell proliferation inhibition experiment (Cell Titer Glo), MSTO-211H; type: cell-based; conditions: MSTO-211H lung cancer cells, three days incubation
Protocol: (§1) Cell Titer Glo luminescent cell viability assay kit was used to quantify the ATP content in cells, so as to quantify the number of viable cells. […] On the second day, the compound was added to the 96-well plate after a three-fold serial dilution to eight concentrations, and incubated at 37° C. for three days in the 5% carbon dioxide incubator. The culture medium was treated with the addition of Cell Titer Glo luminescent cell viability assay kit (Promega G7570) reagent, incubated for 10 minutes, and then placed in Envision (Pelkin Elmer) to read the luminescence signal. DMSO was used instead of the compound as a control to calculate the inhibition rate (inhibition rate %=(1−compound signal/DMSO signal)*100), and then standard four parameter curve fitting was used to calculate the inhibitory activity IC50.

NCI-H2052 cells = assay: Tumor cell proliferation inhibition experiment (Cell Titer Glo), NCI-H2052; type: cell-based; conditions: NCI-H2052 lung cancer cells, three days incubation
Protocol: as §1

[1] = Pharmacokinetic evaluation experiment in mice (IV and PO); type: in vivo; conditions: mouse, plasma, male ICR mice; for bioavailability: PO 30 mg/kg vs IV 5 mg/kg; for AUC: read-out: AUC; for Vd: read-out: Vss; for Cmax: read-out: Cmax; for Tmax: read-out: Tmax
Protocol: 120 healthy adult male ICR mice were selected and divided into 20 groups according to the principle of similar body weight, with 6 mice in each group of IV (10 groups) and 6 mice in each group of PO (10 groups). An appropriate amount of sample was weighed, sequentially added with an appropriate amount of DMA, Solutol, and Saline according to the volume ratio of 10:10:80, and stirred and sonicated to achieve a clarification of 1 mg/mL. After overnight fasting, mice in the IV group were intravenously administered with a volume of 5 mL/kg and a dose of 5 mg/kg, respectively; and mice in the PO group were intragastrically administered with a volume of 30 mL/kg and a dose of 30 mg/kg, respectively. Interleaved sampling was performed on every 6 mice after administration of the test compound. In the IV group, approximately 30 μL of blood was collected at 0.0833, 0.25, 0.5, 1, 2, 4, 6, 8, and 24 hours, and placed in a commercial anticoagulant tube pre-filled with EDTA-K2. In the PO group, approximately 30 μL of blood was collected at 0.25, 0.5, 1, 2, 4, 6, 8, and 24 hours, and placed in the commercial anticoagulant tube pre-filled with EDTA-K2. The tubes were centrifuged for 15 minutes to separate the plasma, and the plasma was stored at −80° C. Animals were allowed to eat 2 hours after administration. The content of the test compound in the plasma of mice after intravenous and intragastric administration was determined by LC/MS/MS method. The linear range of the method was 1.00 to 1000 ng/mL: plasma samples were analyzed after protein precipitation.

SMILES | IC50 (MSTO-211H cells; Homo sapiens, 72 h) | IC50 (NCI-H2052 cells; Homo sapiens, 72 h) | also measured
CNC(=O)c1cc2c(c(F)c1-c1c(Cl)c(F)cc3c1C[C@@](CN[C@H]1CC[C@](C)(O)CC1)(c1ccccc1)O3)[C@@H]1C[C@@H]1O2 (single isomer, unassigned) [Compound 14a2] | 390 nM | 590 nM | 
CNC(=O)c1cnc(OCCO)c(OC)c1-c1c(Cl)c(F)cc2c1C[C@](c1ccccc1)([C@@H]1CCCN1)O2 [Compound 7a] | 9800 nM | 9080 nM | 
C#Cc1c(OCCO)ncc(C(=O)NC)c1-c1c(Cl)c(F)cc2c1C[C@](c1ccccc1)([C@@H]1CCCN1)O2 [Compound 9a] | > 10000 nM | 7970 nM | 
CNC(=O)c1cnc(OCCO)c(F)c1-c1c(Cl)c(F)cc2c1C[C@](c1ccccc1)([C@@H]1CC3(CC3)CN1)O2 [Compound 10a] | 236 nM | 328 nM | bioavailability [1]: 17.3%; clearance ([1]; IV 5 mg/kg): 50.4 mL/min/kg; half-life ([1]; IV 5 mg/kg): 1.11 h; AUC ([1]; IV 5 mg/kg): 1650 ng·h/mL; Vd ([1]; IV 5 mg/kg): 2.42 L/kg; AUC ([1]; PO 30 mg/kg): 1710 ng·h/mL; Cmax ([1]; PO 30 mg/kg): 603 ng/mL; Tmax ([1]; PO 30 mg/kg): 0.5 h
CNC(=O)c1cnc(OCCO)c(F)c1-c1c(Cl)c(F)cc2c1C[C@](c1ccccc1)(c1ccn[nH]1)O2 [Compound 11a] | > 10000 nM | > 10000 nM | 
CNC(=O)c1cnc(OCCO)c(F)c1-c1c(C#N)c(F)cc2c1C[C@](c1ccccc1)([C@@H]1CCCN1)O2 [Compound 12a] | > 10000 nM | > 10000 nM | 
CNC(=O)c1cc2c(c(F)c1-c1c(Cl)c(F)cc3c1C[C@@](CN[C@H]1CC[C@H](O)CC1)(c1ccccc1)O3)C1CC1O2 (some centres unmarked) [Compound 13a] | 200 nM | 210 nM | bioavailability [1]: 108%; clearance ([1]; IV 5 mg/kg): 41.4 mL/min/kg; half-life ([1]; IV 5 mg/kg): 2.23 h; AUC ([1]; IV 5 mg/kg): 2010 ng·h/mL; Vd ([1]; IV 5 mg/kg): 8.5 L/kg; AUC ([1]; PO 30 mg/kg): 13100 ng·h/mL; Cmax ([1]; PO 30 mg/kg): 2050 ng/mL; Tmax ([1]; PO 30 mg/kg): 2 h
CNC(=O)c1cc2c(c(F)c1-c1c(Cl)c(F)cc3c1C[C@@](CN[C@H]1CC[C@](C)(O)CC1)(c1ccccc1)O3)[C@H]1C[C@H]1O2 [Compound 14a1] | 220 nM | 290 nM | 
CNC(=O)c1cnc(OCCO)c(F)c1-c1c(Cl)c(F)cc2c1C[C@](c1ccccc1)([C@@H]1CCC(=O)N1)O2 [Compound 19a] | > 10000 nM | > 10000 nM | 
CNC(=O)c1cc2c(c(F)c1-c1c(Cl)c(F)cc3c1C[C@](c1ccccc1)([C@@H]1CCC(=O)N1)O3)C1CC1O2 (some centres unmarked) [Compound 20a] | > 10000 nM | > 10000 nM | 
CNC(=O)c1cc2c(c(F)c1-c1c(Cl)c(F)cc3c1C[C@@](CN[C@H]1CC[C@](C)(O)CC1)(c1ccccc1)O3)OC1CC21 (some centres unmarked) [Compound 22a] | 50 nM | 90 nM | 
C[C@]1(O)CC[C@H](NC[C@@]2(c3ccccc3)Cc3c(cc(F)c(Cl)c3-c3c(C(N)=O)cc4c(c3F)C3CC3O4)O2)CC1 (some centres unmarked) [Compound 23a] | 110 nM | 200 nM | 
C[C@]1(O)CC[C@H](NC[C@@]2(c3ccccc3)Cc3c(cc(F)c(Cl)c3-c3c(C(N)=O)cc4c(c3F)OC3CC43)O2)CC1 (some centres unmarked) [Compound 24a] | 20 nM | 40 nM | 
CNC(=O)c1cc2c(c(F)c1-c1c(Cl)c(F)cc3c1[C@H](C)[C@@](CN[C@H]1CC[C@](C)(O)CC1)(c1ccccc1)O3)C1CC1O2 (some centres unmarked) [Compound 25a] | 150 nM | 260 nM | 
CNC(=O)c1cc2c(c(F)c1-c1c(Cl)c(F)cc3c1[C@H](C)[C@@](CN[C@H]1CC[C@](C)(O)CC1)(c1ccccc1)O3)OC1CC21 (some centres unmarked) [Compound 26a] | 30 nM | 40 nM | 
C[C@H]1c2c(cc(F)c(Cl)c2-c2c(C(N)=O)cc3c(c2F)C2CC2O3)O[C@]1(CN[C@H]1CC[C@](C)(O)CC1)c1ccccc1 (some centres unmarked) [Compound 27a] | 100 nM | 210 nM | 
C[C@H]1c2c(cc(F)c(Cl)c2-c2c(C(N)=O)cc3c(c2F)OC2CC32)O[C@]1(CN[C@H]1CC[C@](C)(O)CC1)c1ccccc1 (some centres unmarked) [Compound 28a] | 40 nM | 50 nM | 
CNC(=O)c1cc2c(c(F)c1-c1c(Cl)c(F)cc3c1C[C@@](CN[C@H]1CC[C@](C)(O)CC1)(c1ccccc1)O3)CCC2O (some centres unmarked) [Compound 42a] | 730 nM | 900 nM | 
CNC(=O)c1cc2c(c(F)c1-c1c(Cl)c(F)cc3c1C[C@](c1ccccc1)([C@@H]1CCCN1)O3)C[C@H](O)[C@H]2C [Compound 57a1] |  |  | IC50 (MSTO-211H cells): 390 nM; IC50 (NCI-H2052 cells): 450 nM
CNC(=O)c1cc2c(c(F)c1-c1c(Cl)c(F)cc3c1C[C@@](CN[C@H]1CC[C@](C)(O)CC1)(c1ccccc1)O3)CC(O)C2 (some centres unmarked) [Compound 80a] | 490 nM | 580 nM | 

More lines, main results first:

IC50 (MSTO-211H cells; Homo sapiens, 72 h) | IC50 (NCI-H2052 cells; Homo sapiens, 72 h) | SMILES | also measured
2190 nM | 4750 nM | CNC(=O)c1cc2c(c(F)c1-c1c(Cl)c(F)cc3c1C[C@](c1ccccc1)([C@@H]1CCCN1)O3)CC1(CC1)C2 [Compound 1a] | 
414 nM | 928 nM | CNC(=O)c1cc2c(c(F)c1-c1c(Cl)c(F)cc3c1C[C@](c1ccccc1)([C@@H]1CCCN1)O3)C1CC1O2 (some centres unmarked) [Compound 2a] | bioavailability [1]: 95.4%; clearance ([1]; IV 5 mg/kg): 86.3 mL/min/kg; half-life ([1]; IV 5 mg/kg): 3.82 h; AUC ([1]; IV 5 mg/kg): 750 ng·h/mL; Vd ([1]; IV 5 mg/kg): 28 L/kg; AUC ([1]; PO 30 mg/kg): 4300 ng·h/mL; Cmax ([1]; PO 30 mg/kg): 474 ng/mL; Tmax ([1]; PO 30 mg/kg): 4 h
976 nM | 1870 nM | CNC(=O)c1cc2c(c(F)c1-c1c(Cl)c(F)cc3c1C[C@](c1ccccc1)([C@@H]1CCCN1)O3)N1CCCC1CO2 (some centres unmarked) [Compound 3a] | 
> 10000 nM | 8370 nM | CNC(=O)c1cc2c(c(F)c1-c1c(Cl)c(F)cc3c1C[C@](c1ccccc1)([C@@H]1CCCN1)O3)N1C[C@H](O)CC1CO2 (some centres unmarked) [Compound 4a] | 
1940 nM | 3140 nM | CNC(=O)c1cc2c(c(F)c1-c1c(Cl)c(F)cc3c1C[C@](c1ccccc1)([C@@H]1CCCN1)O3)N1C[C@@H](F)CC1CO2 (some centres unmarked) [Compound 5a] | 
> 10000 nM | > 10000 nM | CNC(=O)c1cnc(OCCO)c(O)c1-c1c(Cl)c(F)cc2c1C[C@](c1ccccc1)([C@@H]1CCCN1)O2 [Compound 6a] | 
> 10000 nM | > 10000 nM | CNC(=O)c1cnc(OCCO)c(N)c1-c1c(Cl)c(F)cc2c1C[C@](c1ccccc1)([C@@H]1CCCN1)O2 [Compound 8a] | 
2880 nM | 2730 nM | CNC(=O)c1cc2c(c(F)c1-c1c(Cl)c(F)cc3c1C[C@](c1ccccc1)([C@@H]1CC4(CC4)CN1)O3)N1CCCC1CO2 (some centres unmarked) [Compound 15a] | 
300 nM | 550 nM | CNC(=O)c1cc2c(c(F)c1-c1c(Cl)c(F)cc3c1C[C@@](CN[C@H]1CC[C@](C)(O)CC1)(c1ccccc1)O3)CCC2 [Compound 30a] | 
450 nM | 650 nM | CNC(=O)c1cc2c(c(F)c1-c1c(Cl)c(F)cc3c1C[C@](c1ccccc1)([C@@H]1CCCN1)O3)CCC2(F)F [Compound 36a] | 
990 nM | 750 nM | CNC(=O)c1cc2c(c(F)c1-c1c(Cl)c(F)cc3c1C[C@](c1ccccc1)([C@@H]1CCCN1)O3)CCC2C#N (some centres unmarked) [Compound 38a] | 
490 nM | 600 nM | CNC(=O)c1cc2c(c(F)c1-c1c(Cl)c(F)cc3c1C[C@](c1ccccc1)([C@@H]1CCCN1)O3)CCC2=O [Compound 40a] | 
440 nM | 500 nM | CNC(=O)c1cc2c(c(F)c1-c1c(Cl)c(F)cc3c1C[C@](c1ccccc1)([C@@H]1CCCN1)O3)CCC2F (some centres unmarked) [Compound 43a] | 
640 nM | 930 nM | CNC(=O)c1cc2c(c(F)c1-c1c(Cl)c(F)cc3c1C[C@](c1ccccc1)([C@@H]1CCCN1)O3)CCC2S(C)(=O)=O (some centres unmarked) [Compound 46a] | 
150 nM | 240 nM | CNC(=O)c1cc2c(c(F)c1-c1c(Cl)c(F)cc3c1C[C@](c1ccccc1)([C@@H]1CCCN1)O3)CC(O)C2 (some centres unmarked) [Compound 49a] | 
170 nM | 200 nM | NC(=O)c1cc2c(c(F)c1-c1c(Cl)c(F)cc3c1C[C@](c1ccccc1)([C@@H]1CCCN1)O3)CCC2 [Compound 52a] | 
> 10000 nM | > 10000 nM | CNC(=O)c1cc2c(c(F)c1-c1c(Cl)c(F)cc3c1C[C@](c1ccccc1)([C@@H]1CCCN1)O3)CC(=O)C2 [Compound 65a] | 
